Laboratory results: patent US8404856B2, “Non-nucleoside reverse transcriptase inhibitors” (Merck Sharp & Dohme Corp., priority 2007, dated 2013)
Like-named read-outs stand apart in the source and are kept apart here.

Assays:
[1] = molecular target: HIV-1 RT enzyme (wild-type) (Human immunodeficiency virus type 1 group M subtype B, UniProt P04585); assay: ECL assay for inhibition of HIV reverse transcriptase (WT); format: biochemical
Procedure: (§1) 100 μL reaction mixtures were initiated with a combination of primer-template substrate (10 nM final concentration) and dNTPs (0.6 μM dNTPs, 1.25 μM BrdUTP). The heterodimeric nucleic acid substrate was generated by annealing the DNA primer pD500 (described in Shaw-Reid et al., J. Biol. Chem., 278: 2777-2780; obtained from Integrated DNA Technologies) to t500, a 500 nucleotide RNA template created by in vitro transcription (see Shaw-Reid et al., J. Biol. Chem., 278: 2777-2780). After 1 hour incubation at 37° C., reactions were quenched by 10 μL of 1 N NaOH. Microtiter plates were incubated for an additional 30 minutes at room temperature and then neutralized with 10 μL of 1 N HCl. A mixture of detection buffer containing ruthenylated anti-BrdU antibody and streptavidin coated magnetic beads were added to the plate and incubated at room temperature for 1.5 hours prior to quantification via electrochemiluminescence instrument.

[2] = molecular target: T1, HIV reverse transcriptase with the K103N mutation (Human immunodeficiency virus type 1 group M subtype B, UniProt P04585, K690N); assay: ECL assay for inhibition of mutant HIV reverse transcriptase (K103N); format: biochemical, HIV-1
T1 construct: made in house
Procedure: as §1
(§2) Analogous assays were conducted substituting mutant HIV strains to determine the […] inhibition of compounds of the present invention against mutant HIV reverse transcriptase. In one strain the reverse transcriptase has the Y181C mutation and in the other strain the reverse transcriptase has the K103N mutation. The mutations were generated with the […] site-directed mutagenesis kit (Stratagene).

[3] = molecular target: T2, HIV reverse transcriptase with the Y181C mutation (Human immunodeficiency virus type 1 group M subtype B, UniProt P04585, Y768C); assay: ECL assay for inhibition of mutant HIV reverse transcriptase (Y181C); format: biochemical, HIV-1
T2 construct: made in house
Procedure: as §1, §2

wild type HIV-1 = assay: Spread assay: inhibition of acute HIV-1 infection of T-lymphoid cells (WT); format: cell-based; conditions: Human immunodeficiency virus 1, T-lymphoid; wild type HIV-1, 10% FBS; read-out: Spread (WT) CIC95 (10% FBS)
Procedure: (§3) Assays for the inhibition of acute HIV-1 infection of T-lymphoid cells (alternatively referred to herein as the “spread assay”) were conducted in accordance with Vacca, J. P. et al., Proc. Natl. Acad. Sci. USA 1994, 91: 4096. The assays tested for inhibition of wild type HIV-1 and of HIV strains containing the Y181C or K103N mutation. […] Table C also reports the CIC95 values of certain of the title compounds of Examples 1-25 obtained in the assays employing the Y181C mutant strain and the K103N mutant strain.

[4] = tested on: HIV strain containing the K103N mutation; assay: Spread assay: inhibition of acute HIV-1 infection of T-lymphoid cells (K103N); format: cell-based; conditions: Human immunodeficiency virus 1, T-lymphoid, read-out: Spread (K103N) CIC95 (10% FBS)
Procedure: as §3

[5] = tested on: HIV strain containing the Y181C mutation; assay: Spread assay: inhibition of acute HIV-1 infection of T-lymphoid cells (Y181C); format: cell-based; conditions: Human immunodeficiency virus 1, T-lymphoid, read-out: Spread (Y181C) CIC95 (10% FBS)
Procedure: as §3

T-lymphoid cells = format: cell-based
Procedure: Cytotoxicity was determined by microscopic examination of the cells in each well in the spread assay, wherein a trained analyst observed each culture for any of the following morphological changes as compared to the control cultures: pH imbalance, cell abnormality, cytostatic, cytopathic, or crystallization (i.e., the compound is not soluble or forms crystals in the well). The toxicity value assigned to a given compound is the lowest concentration of the compound at which one of the above changes is observed.

[6] = wild-type HIV-1 RT, read-out: ECL Assay (WT) IC50
[7] = K103N mutant RT, read-out: ECL Assay (K103N) IC50
[8] = Y181C mutant RT, read-out: ECL Assay (Y181C) IC50

SMILES | IC50 [1, 6] | IC50 [2, 7] | IC50 [3, 8] | IC95 (wild type HIV-1) | IC95 [4] | IC95 [5] | Cytotoxicity: no cytotoxicity at concentrations up to (T-lymphoid cells) | Cytotoxicity: no cytotoxicity at concentrations of up to (T-lymphoid cells) | IC50 [1] | IC50 [2] | IC50 [3]
N#Cc1cc(Cl)cc(Oc2nc(NCc3n[nH]c4ncccc34)c(Cl)cc2F)c1 [Compound 1-7, 3-chloro-5-({5-chloro-3-fluoro-6-[(1H-pyrazolo[3,4-b]pyridin-3-ylmethyl)amino]pyridin-2-yl}oxy)benzonitrile] | 0.3 nM | 1.5 nM | 0.4 nM | 3 nM | 94 nM | 13 nM | > 833 nM | – | – | – | –
N#Cc1cc(Cl)cc(Oc2nc(NCc3n[nH]c4nc(N)ccc34)c(Cl)cc2F)c1 [Compound 2-7, 3-[(6-{[(6-amino-1H-pyrazolo[3,4-b]pyridin-3-yl)methyl]amino}-5-chloro-3-fluoropyridin-2-yl)oxy]-5-chlorobenzonitrile] | 0.5 nM | 0.6 nM | 1 nM | 3 nM | 28 nM | 14 nM | > 833 nM | – | – | – | –
N#Cc1cc(Cl)cc(Oc2cc(CCc3n[nH]c4ncccc34)[nH]c(=O)c2Cl)c1 [Compound 3-8, 3-chloro-5-({3-chloro-2-oxo-6-[2-(1H-pyrazolo[3,4-b]pyridin-3-yl)ethyl]-1,2-dihydropyridin-4-yl}oxy)benzonitrile] | 1.9 nM | 4.7 nM | 3 nM | 7 nM | 31 nM | 19 nM | > 833 nM | – | – | – | –
N#Cc1cc(Cl)cc(Oc2cc(CCc3n[nH]c4ncccc34)[nH]c(=O)c2)c1 [Compound 3-9, 3-chloro-5-({2-oxo-6-[2-(1H-pyrazolo[3,4-b]pyridin-3-yl)ethyl]-1,2-dihydropyridin-4-yl}oxy)benzonitrile] | 3.8 nM | 32 nM | 11 nM | 55 nM | 320 nM | 360 nM | > 833 nM | – | – | – | –
N#Cc1cc(Cl)cc(Oc2cc(CCc3n[nH]c4nc(N)ccc34)[nH]c(=O)c2Cl)c1 [Compound 4-4, 3-({6-[2-(6-amino-1H-pyrazolo[3,4-b]pyridin-3-yl)ethyl]-3-chloro-2-oxo-1,2-dihydropyridin-4-yl}oxy)-5-chlorobenzonitrile] | 1.6 nM | 14 nM | 7.9 nM | 39 nM | 207 nM | 438 nM | > 833 nM | – | – | – | –
N#Cc1cc(Cl)cc(Oc2c(Cl)c(CCc3n[nH]c4ncccc34)[nH]c(=O)c2Cl)c1 [Compound 5-6, 3-chloro-5-({3,5-dichloro-2-oxo-6-[2-(1H-pyrazolo[3,4-b]pyridin-3-yl)ethyl]-1,2-dihydropyridin-4-yl}oxy)benzonitrile] | 1.2 nM | 1.8 nM | 1.6 nM | 42 nM | 367 nM | – | – | > 8.5 µM | – | – | –
CCOC(=O)c1cc(Cl)cc(Oc2c(Cl)c(CCc3n[nH]c4ncccc34)[nH]c(=O)c2Cl)c1 [Compound 5-7, ethyl 3-chloro-5-({3,5-dichloro-2-oxo-6-[2-(1H-pyrazolo[3,4-b]pyridin-3-yl)ethyl]-1,2-dihydropyridin-4-yl}oxy)benzoate] | 3.5 nM | 52 nM | 49 nM | 1220 nM | – | – | – | > 8.5 µM | – | – | –
N#Cc1cc(Cl)cc(Oc2cc(CCc3n[nH]c4ncccc34)ncc2Cl)c1 [Compound 6-5, 3-chloro-5-({5-chloro-2-[2-(1H-pyrazolo[3,4-b]pyridin-3-yl)ethyl]pyridin-4-yl}oxy)benzonitrile] | 25 nM | 87 nM | 270 nM | 103 nM | 361 nM | – | – | > 8.5 µM | – | – | –
Cc1nc(OCc2n[nH]c3ncccc23)c(Cl)c(Oc2cc(Cl)cc(C#N)c2)c1Cl [Compound 7-1, 3-chloro-5-{[3,5-dichloro-2-methyl-6-(1H-pyrazolo[3,4-b]pyridin-3-ylmethoxy)pyridin-4-yl]oxy}benzonitrile] | 1.3 nM | 27 nM | 3.5 nM | 100 nM | 1700 nM | – | – | > 8.5 µM | – | – | –
N#Cc1cc(Cl)cc(Oc2cc(NCc3n[nH]c4ncccc34)[nH]c(=O)c2Cl)c1 [Compound 8-5, 3-chloro-5-({3-chloro-2-oxo-6-[(1H-pyrazolo[3,4-b]pyridin-3-ylmethyl)amino]-1,2-dihydropyridin-4-yl}oxy)benzonitrile] | 0.9 nM | 11 nM | 5.7 nM | 34 nM | 833 nM | – | – | > 8.5 µM | – | – | –
N#Cc1cc(Cl)cc(Oc2cc(Cn3c(=O)[nH]c4ccccc43)[nH]c(=O)c2Cl)c1 [Compound 9-8, 3-chloro-5-({3-chloro-2-oxo-6-[(2-oxo-2,3-dihydro-1H-benzimidazol-1-yl)methyl]-1,2-dihydropyridin-4-yl}oxy)benzonitrile] | 4.8 nM | 13 nM | 6.3 nM | 638 nM | – | – | – | > 8.5 µM | – | – | –
Cc1ccn(Cc2n[nH]c3ncccc23)c(=O)c1Oc1cc(Cl)cc(C#N)c1 [Compound 11-7, 3-chloro-5-{[4-methyl-2-oxo-1-(1H-pyrazolo[3,4-b]pyridin-3-ylmethyl)-1,2-dihydropyridin-3-yl]oxy}benzonitrile] | 2.5 nM | 3.7 nM | 3.2 nM | 7 nM | 14 nM | – | > 833 nM | – | – | – | –
Cc1ccn(CCc2n[nH]c3ncccc23)c(=O)c1Oc1cc(Cl)cc(C#N)c1 [Compound 12-7, 3-chloro-5-({4-methyl-2-oxo-1-[2-(1H-pyrazolo[3,4-b]pyridin-3-yl)ethyl]-1,2-dihydropyridin-3-yl}oxy)benzonitrile] | 25 nM | 58 nM | 51 nM | 248 nM | 447 nM | – | > 833 nM | – | – | – | –
CN(Cc1ccccc1Cl)C(=O)Cn1ccc(C(F)(F)F)c(Oc2cc(Cl)cc(C#N)c2)c1=O [Compound 14, N-(2-chlorobenzyl)-2-[3-(3-chloro-5-cyanophenoxy)-2-oxo-4-(trifluoromethyl)pyridin-1(2H)-yl]-N-methylacetamide] | 300 nM | 440 nM | 290 nM | 330 nM | 284 nM | – | > 833 nM | – | – | – | –
N#Cc1cc(Cl)cc(Oc2c(C(F)(F)F)ccn(CC(=O)Nc3ccc(S(N)(=O)=O)cc3Cl)c2=O)c1 [Compound 15, N-[4-(aminosulfonyl)-2-chlorophenyl]-2-[3-(3-chloro-5-cyanophenoxy)-2-oxo-4-(trifluoromethyl)pyridin-1 (2H)-yl]acetamide] | 3.3 nM | 4.8 nM | 3.9 nM | 10 nM | 6 nM | – | > 833 nM | – | – | – | –
N#Cc1cc(Cl)cc(Oc2c(Cl)ccn(Cc3n[nH]c4ncccc34)c2=O)c1 [Compound 21-8, 3-chloro-5-{[4-chloro-2-oxo-1-(1H-pyrazolo[3,4-b]pyridin-3-ylmethyl)-1,2-dihydropyridin-3-yl]oxy}benzonitrile] | 0.8 nM | 1.4 nM | 1 nM | 3 nM | – | 8 nM | > 833 nM | – | – | – | –
N#Cc1cc(Cl)cc(Oc2cc(C(O)c3n[nH]c4ncccc34)[nH]c(=O)c2Cl)c1 (centres unmarked) [Compound 25-2] | – | – | – | 28 nM | 180 nM | – | – | – | 3.2 nM | 13 nM | 4.7 nM
